Some results are limits rather than exact numbers.

For one test, the target named is recombinant human SYK (GST-hSYK fusion protein) (Homo sapiens, UniProt P43405). Particulars: read-out: rhSYK Activity (IC50); recombinant human GST-SYK 5 pM, ATP 25 μM, biotinylated substrate peptide 250 nM, HTRF, 10-dose titration.
From the text: Homogeneous Time-Resolved Fluorescence (HTRF) Assay for the Recombinant Human SYK Enzyme:
In the case of `Cc1cc(Nc2nccc(C(F)(F)F)n2)cc(-c2cnc(C(=O)NCC(O)CO)s2)c1` (centres unmarked) [Example 87A-3], the IC50 was < 100 nM.
Regarding `Cc1cc(Nc2nccc(C(F)(F)F)n2)cc(-c2cnc(C(=O)NC[C@@H](O)CO)s2)c1` [Example 87A-4], the IC50 is < 100 nM.
As to `COC(=O)[C@H]1C[C@@H](O)CN1C(=O)c1ncc(-c2cc(C)cc(Nc3nccc(C(F)(F)F)n3)c2)s1` [Example 87B-23], the IC50 was < 100 nM.
Turning to `Cc1cc(Nc2nccc(C(F)(F)F)n2)cc(-c2cnc(C(=O)N3CC(O)CC3C(=O)O)s2)c1` (centres unmarked) [Example 87B-24], the IC50 is < 100 nM.
Same read-out and setting: in the case of `Cc1cc(Nc2nccc(OC3CNC3)n2)cc(-c2cnc(C3(O)CCC3)s2)c1` [Example 94A-28] it was < 100 nM; in that of `Cc1cc(Nc2nccc(OC3CCNCC3F)n2)cc(-c2cnc(C(C)(O)C(F)(F)F)s2)c1` (centres unmarked) [Example 94B-7], < 100 nM; in that of `Cc1cc(Nc2nccc(O[C@@H]3CCNC3)n2)cc(-c2cnc(C(C)(O)C(F)(F)F)s2)c1` (some centres unmarked) [Example 94B-8], < 100 nM.
As to `Cc1cc(Nc2nc(C)cc(C)n2)cc(-c2cnc(C3(O)CCC(C(=O)O)C(C)(C)C3)s2)c1` (centres unmarked) [Example 100A-10], the IC50 lay in the range of 100 to 1000 nM.

Staying with this test, now noted: read-out: rhSYK Activity; Table 33B.
Take `Cc1cc(Nc2nccc(C)n2)cc(-c2cnc(C3(O)CCC(C(=O)O)C(C(C)C)C3)s2)c1` (centres unmarked) [Example 33B-34]: the IC50 is < 100 nM.
Regarding `Cc1cc(Nc2nccc(C)n2)cc(-c2cnc(C3(O)CCC(C(=O)O)C(C(C)C)C3)s2)c1` (centres unmarked) [Example 33B-36], the IC50 is < 100 nM.

The same test, now with this note: read-out: rhSYK Activity; Table 33C.
In the case of `Cc1cc(Nc2nccc(C(F)(F)F)n2)cc(-c2cnc(C3(O)C[C@@H]4C(C(=O)O)[C@@H]4C3)s2)c1` (some centres unmarked) [Example 33C-10], the IC50 was < 100 nM.
Still for that read-out and setting: in the case of `CCOC(=O)C1[C@H]2CC(O)(c3ncc(-c4cc(C)cc(Nc5nccc(C(F)(F)F)n5)c4)s3)C[C@@H]12` (some centres unmarked) [Example 33C-12] it was < 100 nM; in that of `Cc1cc(Nc2nccc(C)n2)cc(-c2cnc(C3(O)CC4CCC3CC4C(=O)O)s2)c1` (centres unmarked) [Example 33C-19], < 100 nM.

Staying with this test, now noted: read-out: rhSYK Activity; Table 36A.
Consider `COC(=O)C1CCC(c2ncc(-c3cccc(Nc4nccc(C(F)(F)F)n4)c3)s2)CC1` (centres unmarked) [Example 36A-5], for which the IC50 lay in the range of 100 to 1000 nM.

Staying with this test, now noted: read-out: rhSYK Activity; Table 54D.
Consider `Cc1cc(Nc2nccc(C(C)C)n2)cc(-c2cnc(C3(O)CCCN(C(=O)C(C)O)CC3)s2)c1` (centres unmarked) [Example 54D-3], for which the IC50 is < 100 nM.
Still for that read-out and setting: with `Cc1cc(Nc2nccc(C(F)(F)F)n2)cc(-c2cnc(C3(O)CCCN(C(=O)c4cnn[nH]4)CC3)s2)c1` (centres unmarked) [Example 54D-35] the figure was < 100 nM.
Still for that read-out and setting: with `Cc1cc(Nc2nccc(C(F)(F)F)n2)cc(-c2cnc(C3(O)CCCN(C(=O)c4n[nH]c(=O)[nH]4)CC3)s2)c1` (centres unmarked) [Example 54D-63] the figure was < 100 nM; with `Cc1cc(Nc2nccc(C(F)(F)F)n2)cc(-c2cnc(C3(O)CCCN(C(=O)CC4CCOC4)CC3)s2)c1` (centres unmarked) [Example 54D-69], < 100 nM; with `Cc1cc(Nc2nccc(C(F)(F)F)n2)cc(-c2cnc(C3(O)CCCN(C(=O)Cc4n[nH]c(=O)[nH]4)CC3)s2)c1` (centres unmarked) [Example 54D-94], < 100 nM.

The same test, now with this note: read-out: rhSYK Activity; Table 54E.
Consider `Cc1cc(Nc2nccc(C(F)(F)F)n2)cc(-c2cnc(C3(O)CCC(NC(=O)CC4CCCO4)CC3)s2)c1` (centres unmarked) [Example 54E-19], for which the IC50 was < 100 nM.

The same test, now with this note: read-out: rhSYK Activity; Table 108A.
In the case of `Cc1cc(Nc2nccc(OC3CCCNCC3)n2)cc(-c2cnc(C3(O)CCC3)s2)c1` (centres unmarked) [Example 108A-10], the IC50 was < 100 nM.
The same measure, in the same setting: with `Cc1cc(Nc2nccc(OC3CCCNCC3)n2)cc(-c2cnc(C3(O)CCC3)s2)c1` (centres unmarked) [Example 108A-11] the figure was < 100 nM.

The same test, now with this note: read-out: rhSYK Activity; Table 113A.
On to `Cc1cc(Nc2nccc(C)n2)cc(-c2cnc(C3(O)CCC(C(=O)O)C(C)C3)s2)c1` (centres unmarked) [Example 113A-5], for which the IC50 is < 100 nM.
As for `Cc1cc(Nc2nccc(C)n2)cc(-c2cnc(C3(O)CCC(C(=O)O)C(C)C3)s2)c1` (centres unmarked) [Example 113A-6], the IC50 was < 100 nM.
Same read-out and setting: in the case of `Cc1cc(Nc2nccc(C)n2)cc(-c2cnc(C3(O)CCC(C(=O)O)C(C)C3)s2)c1` (centres unmarked) [Example 113A-7] it was < 100 nM; in that of `CCc1ccnc(Nc2cc(C)cc(-c3cnc(C4(O)CCC(C(=O)O)C(C)C4)s3)c2)n1` (centres unmarked) [Example 113A-15], < 100 nM; in that of `Cc1ccnc(Nc2cc(-c3cnc(C4(O)CCC(C(=O)O)C(C)C4)s3)cc(C3CC3)c2)n1` (centres unmarked) [Example 113A-24], < 100 nM.
Consider `CCOC(=O)C1CCC(O)(c2ncc(-c3cc(C)cc(Nc4nccc(CC)n4)c3)s2)CC1C` (centres unmarked) [Example 113A-32], for which the IC50 was < 100 nM.
Regarding `COCCOc1ccnc(Nc2cc(C)cc(-c3cnc(C4(O)CCC(C(=O)O)C(C)C4)s3)c2)n1` (centres unmarked) [Example 113A-39], the IC50 is < 100 nM.
Regarding `COCCCOc1ccnc(Nc2cc(C)cc(-c3cnc(C4(O)CCC(C(=O)O)C(C)C4)s3)c2)n1` (centres unmarked) [Example 113A-41], the IC50 was < 100 nM.
As to `CCOC(=O)C1CCC(O)(c2ncc(-c3cc(C)cc(Nc4nccc(OCCOC)n4)c3)s2)CC1C` (centres unmarked) [Example 113A-44], the IC50 was < 100 nM.
The same measure, in the same setting: with `CCOC(=O)C1CCC(O)(c2ncc(-c3cc(C)cc(Nc4nccc(OCCCOC)n4)c3)s2)CC1C` (centres unmarked) [Example 113A-48] the figure was < 100 nM; with `Cc1cc(Nc2nccc(C)n2)cc(-c2cnc(C3(O)CCC(C(=O)O)C(C)C3C)s2)c1` (centres unmarked) [Example 113A-67], < 100 nM.
As for `Cc1cc(Nc2nccc(C)n2)cc(-c2cnc(C3(O)CCC(C(=O)O)C(C)C3C)s2)c1` (centres unmarked) [Example 113A-68], the IC50 was < 100 nM.
Same read-out and setting: in the case of `Cc1cc(Nc2nccc(C)n2)cc(-c2cnc(C3(O)CCC(C(=O)O)C(C)C3C)s2)c1` (centres unmarked) [Example 113A-69] it was < 100 nM; in that of `CCOC(=O)C1CCC(O)(c2ncc(-c3cc(C)cc(Nc4nccc(C)n4)c3)s2)C(C)C1C` (centres unmarked) [Example 113A-71], < 100 nM.
Take `CCOC(=O)C1CCC(O)(c2ncc(-c3cc(C)cc(Nc4nccc(C)n4)c3)s2)C(C)C1C` (centres unmarked) [Example 113A-72]: the IC50 was < 100 nM.
For `CCOC(=O)C1CCC(O)(c2ncc(-c3cc(C)cc(Nc4nccc(C)n4)c3)s2)C(C)C1C` (centres unmarked) [Example 113A-73], the IC50 was < 100 nM.
The same measure, in the same setting: with `Cc1cc(Nc2nccc(C)n2)cc(-c2cnc(C3(O)CCC(C(=O)O)CC3C)s2)c1` (centres unmarked) [Example 113A-81] the figure was < 100 nM; with `Cc1cc(Nc2nccc(C)n2)cc(-c2cnc(C3(O)CCC(C(=O)O)CC3C)s2)c1` (centres unmarked) [Example 113A-82], < 100 nM.
On the same count and under the same terms, with `Cc1cc(Nc2nccc(C)n2)cc(-c2cnc(C3(O)CCC(C(=O)O)CC3C)s2)c1` (centres unmarked) [Example 113A-83] the figure was < 100 nM; with `Cc1cc(Nc2nccc(C)n2)cc(-c2cnc(C3(O)CCC(C(=O)O)CC3C)s2)c1` (centres unmarked) [Example 113A-84], < 100 nM.
Take `Cc1cc(Nc2nccc(C)n2)cc(-c2cnc(C3(O)CCC(C(=O)O)CC3C)s2)c1` (centres unmarked) [Example 113A-85]: the IC50 was < 100 nM.
`Cc1cc(Nc2nccc(C)n2)cc(-c2cnc(C3(O)CCC(C(=O)O)CC3C)s2)c1` (centres unmarked) [Example 113A-86]: the IC50 was < 100 nM.
The same measure, in the same setting: with `Cc1cc(Nc2nccc(C)n2)cc(-c2cnc(C3(O)CCC(C(=O)O)CC3O)s2)c1` (centres unmarked) [Example 113A-91] the figure was < 100 nM.

The test is the same for the next values; noted with them: read-out: rhSYK Activity; Table 113B.
In the case of `Cc1cc(Nc2nccc(C)n2)cc(-c2cnc(C3(O)CC(C)C(C(=O)O)CC3C)s2)c1` (centres unmarked) [Example 113B-1], the IC50 is < 100 nM.
In the case of `Cc1cc(Nc2nccc(C)n2)cc(-c2cnc(C3(O)CC(C)C(C(=O)O)CC3C)s2)c1` (centres unmarked) [Example 113B-2], the IC50 was < 100 nM.

The record behind these values is patent publication US8551984B2, “Aminopyrimidines as SYK inhibitors” (Merck Sharp & Dohme Corp., priority 2009, dated 2013).
